Laboratory results from patent publication US8192962B2, “Processes for detecting toxic substances” (Daikin Industries, Ltd., priority 2001, dated 2012).

Test system: Metabolism protein genes
Experiment: DNA chip mRNA expression in yeast, metabolism protein genes (Table 7)
Type: cell-based, Saccharomyces cerevisiae S288C
In short: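 Untreated cultures served as reference for log-phase S288C yeast given a growth-inhibiting, non-lethal toxicant dose for 2 h at 25° C. in YPD. Gene expression was measured on a whole-genome DNA chip from Cy3/Cy5-labeled cDNA.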

CCCCC[C@H](O)CC(=O)CCc1ccc(O)c(OC)c1 [(13), gingerol]
0.7: level of expressed mRNA in the presence/in the absence of chemical substance (yeast gene YJL121C) | level of expressed mRNA in the presence/in the absence of chemical substance (yeast gene YPR113W)
2.6: The level of expressed mRNA in the presence of chemical substance/The level of expressed mRNA in the absence of chemical substance (yeast gene YKL215C) | The level of expressed mRNA in the presence of chemical substance/The level of expressed mRNA in the absence of chemical substance (yeast gene YNL045W)
2.4: The level of expressed mRNA in the presence of chemical substance/The level of expressed mRNA in the absence of chemical substance (yeast gene YJL099W) | The level of expressed mRNA in the presence of chemical substance/The level of expressed mRNA in the absence of chemical substance (yeast gene YNR059W)
0.1: level of expressed mRNA in the presence/in the absence of chemical substance (yeast gene YLR372W)
0.2: level of expressed mRNA in the presence/in the absence of chemical substance (yeast gene YLR056W) | level of expressed mRNA in the presence/in the absence of chemical substance (yeast gene YML022W)
5.7: The level of expressed mRNA in the presence of chemical substance/The level of expressed mRNA in the absence of chemical substance (yeast gene YJR155W)
1.3: The level of expressed mRNA in the presence of chemical substance/The level of expressed mRNA in the absence of chemical substance (yeast gene YKR039W) | level of expressed mRNA in the presence/in the absence of chemical substance (yeast gene YMR205C) | level of expressed mRNA in the presence/in the absence of chemical substance (yeast gene YNL025C) | level of expressed mRNA in the presence/in the absence of chemical substance (yeast gene YOL108C) | level of expressed mRNA in the presence/in the absence of chemical substance (yeast gene YOR108W) | level of expressed mRNA in the presence/in the absence of chemical substance (yeast gene YPL057C)
1.5: The level of expressed mRNA in the presence of chemical substance/The level of expressed mRNA in the absence of chemical substance (yeast gene YOR136W) | level of expressed mRNA in the presence/in the absence of chemical substance (yeast gene YOR176W)
0.6: level of expressed mRNA in the presence/in the absence of chemical substance (yeast gene YLR081W) | The level of expressed mRNA in the presence of chemical substance/The level of expressed mRNA in the absence of chemical substance (yeast gene YLR180W) | level of expressed mRNA in the presence/in the absence of chemical substance (yeast gene YOR002W) | level of expressed mRNA in the presence/in the absence of chemical substance (yeast gene YPL148C)
1.7: level of expressed mRNA in the presence/in the absence of chemical substance (yeast gene YLR044C) | The level of expressed mRNA in the presence of chemical substance/The level of expressed mRNA in the absence of chemical substance (yeast gene YLR273C) | The level of expressed mRNA in the presence of chemical substance/The level of expressed mRNA in the absence of chemical substance (yeast gene YNL169C) | level of expressed mRNA in the presence/in the absence of chemical substance (yeast gene YOL086C) | level of expressed mRNA in the presence/in the absence of chemical substance (yeast gene YOL156W)
1.4: level of expressed mRNA in the presence/in the absence of chemical substance (yeast gene YOR142W)
0.9: level of expressed mRNA in the presence/in the absence of chemical substance (yeast gene YJL167W) | level of expressed mRNA in the presence/in the absence of chemical substance (yeast gene YJR077C) | level of expressed mRNA in the presence/in the absence of chemical substance (yeast gene YMR083W) | The level of expressed mRNA in the presence of chemical substance/The level of expressed mRNA in the absence of chemical substance (yeast gene YMR189W) | The level of expressed mRNA in the presence of chemical substance/The level of expressed mRNA in the absence of chemical substance (yeast gene YMR296C) | The level of expressed mRNA in the presence of chemical substance/The level of expressed mRNA in the absence of chemical substance (yeast gene YNL106C) | level of expressed mRNA in the presence/in the absence of chemical substance (yeast gene YPL028W)
2.9: The level of expressed mRNA in the presence of chemical substance/The level of expressed mRNA in the absence of chemical substance (yeast gene YLR299W) | The level of expressed mRNA in the presence of chemical substance/The level of expressed mRNA in the absence of chemical substance (yeast gene YNL012W)
1.2: level of expressed mRNA in the presence/in the absence of chemical substance (yeast gene YKL060C) | level of expressed mRNA in the presence/in the absence of chemical substance (yeast gene YKR034W) | The level of expressed mRNA in the presence of chemical substance/The level of expressed mRNA in the absence of chemical substance (yeast gene YOL058W) | The level of expressed mRNA in the presence of chemical substance/The level of expressed mRNA in the absence of chemical substance (yeast gene YOL143C) | level of expressed mRNA in the presence/in the absence of chemical substance (yeast gene YPL135W)
3.7: The level of expressed mRNA in the presence of chemical substance/The level of expressed mRNA in the absence of chemical substance (yeast gene YOL165C)
1.1: level of expressed mRNA in the presence/in the absence of chemical substance (yeast gene YJL216C) | The level of expressed mRNA in the presence of chemical substance/The level of expressed mRNA in the absence of chemical substance (yeast gene YJR148W) | level of expressed mRNA in the presence/in the absence of chemical substance (yeast gene YOR348C)
2.2: The level of expressed mRNA in the presence of chemical substance/The level of expressed mRNA in the absence of chemical substance (yeast gene YKL104C)
0.8: level of expressed mRNA in the presence/in the absence of chemical substance (yeast gene YKL148C) | level of expressed mRNA in the presence/in the absence of chemical substance (yeast gene YLR006C) | level of expressed mRNA in the presence/in the absence of chemical substance (yeast gene YLR284C) | The level of expressed mRNA in the presence of chemical substance/The level of expressed mRNA in the absence of chemical substance (yeast gene YNL322C) | level of expressed mRNA in the presence/in the absence of chemical substance (yeast gene YOL116W) | level of expressed mRNA in the presence/in the absence of chemical substance (yeast gene YOR103C)
2.1: The level of expressed mRNA in the presence of chemical substance/The level of expressed mRNA in the absence of chemical substance (yeast gene YJR137C) | The level of expressed mRNA in the presence of chemical substance/The level of expressed mRNA in the absence of chemical substance (yeast gene YKL213C) | The level of expressed mRNA in the presence of chemical substance/The level of expressed mRNA in the absence of chemical substance (yeast gene YNL104C) | The level of expressed mRNA in the presence of chemical substance/The level of expressed mRNA in the absence of chemical substance (yeast gene YNL332W) | The level of expressed mRNA in the presence of chemical substance/The level of expressed mRNA in the absence of chemical substance (yeast gene YNR002C) | The level of expressed mRNA in the presence of chemical substance/The level of expressed mRNA in the absence of chemical substance (yeast gene YNR019W) | The level of expressed mRNA in the presence of chemical substance/The level of expressed mRNA in the absence of chemical substance (yeast gene YOR130C) | The level of expressed mRNA in the presence of chemical substance/The level of expressed mRNA in the absence of chemical substance (yeast gene YOR336W)
1.8: level of expressed mRNA in the presence/in the absence of chemical substance (yeast gene YMR323W) | The level of expressed mRNA in the presence of chemical substance/The level of expressed mRNA in the absence of chemical substance (yeast gene YOR347C)
1.0: level of expressed mRNA in the presence/in the absence of chemical substance (yeast gene YLR089C) | The level of expressed mRNA in the presence of chemical substance/The level of expressed mRNA in the absence of chemical substance (yeast gene YLR307W) | level of expressed mRNA in the presence/in the absence of chemical substance (yeast gene YLR354C) | level of expressed mRNA in the presence/in the absence of chemical substance (yeast gene YOR085W) | level of expressed mRNA in the presence/in the absence of chemical substance (yeast gene YOR178C) | level of expressed mRNA in the presence/in the absence of chemical substance (yeast gene YOR251C) | level of expressed mRNA in the presence/in the absence of chemical substance (yeast gene YPR165W)
2.0: The level of expressed mRNA in the presence of chemical substance/The level of expressed mRNA in the absence of chemical substance (yeast gene YKL035W) | The level of expressed mRNA in the presence of chemical substance/The level of expressed mRNA in the absence of chemical substance (yeast gene YKL091C)
1.6: level of expressed mRNA in the presence/in the absence of chemical substance (yeast gene YMR261C) | The level of expressed mRNA in the presence of chemical substance/The level of expressed mRNA in the absence of chemical substance (yeast gene YOR099W) | level of expressed mRNA in the presence/in the absence of chemical substance (yeast gene YPR183W)
3.1: The level of expressed mRNA in the presence of chemical substance/The level of expressed mRNA in the absence of chemical substance (yeast gene YJL172W) | The level of expressed mRNA in the presence of chemical substance/The level of expressed mRNA in the absence of chemical substance (yeast gene YNL331C)
0.5: level of expressed mRNA in the presence/in the absence of chemical substance (yeast gene YLR304C)
0.3: level of expressed mRNA in the presence/in the absence of chemical substance (yeast gene YJR143C) | level of expressed mRNA in the presence/in the absence of chemical substance (yeast gene YLR058C)
0.4: level of expressed mRNA in the presence/in the absence of chemical substance (yeast gene YMR011W) | level of expressed mRNA in the presence/in the absence of chemical substance (yeast gene YMR015C) | level of expressed mRNA in the presence/in the absence of chemical substance (yeast gene YOR128C)
2.3: level of expressed mRNA in the presence/in the absence of chemical substance (yeast gene YKL157W) | The level of expressed mRNA in the presence of chemical substance/The level of expressed mRNA in the absence of chemical substance (yeast gene YLL058W)
2.7: The level of expressed mRNA in the presence of chemical substance/The level of expressed mRNA in the absence of chemical substance (yeast gene YKL152C) | level of expressed mRNA in the presence/in the absence of chemical substance (yeast gene YNL192W)
1.9: The level of expressed mRNA in the presence of chemical substance/The level of expressed mRNA in the absence of chemical substance (yeast gene YLR348C) | The level of expressed mRNA in the presence of chemical substance/The level of expressed mRNA in the absence of chemical substance (yeast gene YNL037C) | The level of expressed mRNA in the presence of chemical substance/The level of expressed mRNA in the absence of chemical substance (yeast gene YPL017C) | The level of expressed mRNA in the presence of chemical substance/The level of expressed mRNA in the absence of chemical substance (yeast gene YPR167C)
